In publication PMC6691788, “Design and synthesis of phthalazine-based compounds as potent anticancer agents with potential antiangiogenic activity via VEGFR-2 inhibition” (Journal of Enzyme Inhibition and Medicinal Chemistry, 2019):

How the values were obtained:
Experiment in all cases: NCI 60 cell panel SRB screen
CCRF-CEM = type: cell-based, human; settings: for TGI / GI50 / CC50: 5 log dose; for GI50 / CC50 / activity at 10 µM: Homo sapiens; for CC50: 48 h, read-out: LC50 (the source's name); for activity at 10 µM: single dose 10 μM, read-out: percent cell growth promotion
HL-60(TB) = type: cell-based; settings: Homo sapiens; for GI50 / IC (TGI) / CC50: 5 log dose; for CC50: 48 h, read-out: LC50 (the source's name); for activity at 10 µM: single dose 10 μM, read-out: percent cell growth promotion
RPMI-8226 = type: cell-based; settings: Homo sapiens; for GI50 / IC (TGI) / CC50: RPMI-8226, 5 log dose; for CC50: 48 h, read-out: LC50 (the source's name); for activity at 10 µM: RPMI-8226, single dose 10 μM, read-out: percent cell growth promotion
SR = type: cell-based; settings: Homo sapiens; for GI50 / IC (TGI) / CC50: 5 log dose; for CC50: 48 h, read-out: LC50 (the source's name); for activity at 10 µM: single dose 10 μM, read-out: percent cell growth promotion
NCI-H226 = type: cell-based; settings: Homo sapiens; for GI50 / IC (TGI) / CC50: NCI-H226, 5 log dose; for CC50: 48 h, read-out: LC50 (the source's name); for activity at 10 µM: NCI-H226, single dose 10 μM, read-out: percent cell growth promotion
NCI-H23 = type: cell-based; settings: Homo sapiens; for GI50 / IC (TGI) / CC50: NCI-H23, 5 log dose; for CC50: 48 h, read-out: LC50 (the source's name); for activity at 10 µM: NCI-H23, single dose 10 μM, read-out: percent cell growth promotion
HCC-2998 = type: cell-based; settings: Homo sapiens; for GI50 / IC (TGI) / LC50 (50% lethal concentration): HCC-2998, 5 log dose; for LC50 (50% lethal concentration): 48 h; for activity at 10 µM: HCC-2998, single dose 10 μM, read-out: percent cell growth promotion
HCT-116 = type: cell-based; settings: Homo sapiens; for GI50 / IC (TGI) / LC50 (lethal concentration 50%): HCT-116, 5 log dose; for LC50 (lethal concentration 50%): 48 h; for activity at 10 µM: HCT-116, single dose 10 μM, read-out: percent cell growth promotion
HCT-15 = type: cell-based; settings: Homo sapiens; for GI50 / IC (TGI) / CC50: HCT-15, 5 log dose; for CC50: 48 h, read-out: LC50 (the source's name); for activity at 10 µM: HCT-15, single dose 10 μM, read-out: percent cell growth promotion
KM12 = type: cell-based; settings: Homo sapiens; for GI50 / IC (TGI) / CC50: KM12, 5 log dose; for CC50: 48 h, read-out: LC50 (the source's name); for activity at 10 µM: KM12, single dose 10 μM, read-out: percent cell growth promotion
SF-295 = type: cell-based; settings: Homo sapiens; for GI50 / IC (TGI) / CC50: SF-295, 5 log dose; for CC50: 48 h, read-out: LC50 (the source's name); for activity at 10 µM: SF-295, single dose 10 μM, read-out: percent cell growth promotion
SNB-19 = type: cell-based; settings: Homo sapiens; for GI50 / IC (TGI) / CC50: SNB-19, 5 log dose; for CC50: 48 h, read-out: LC50 (the source's name); for activity at 10 µM: SNB-19, single dose 10 μM, read-out: percent cell growth promotion
MALME-3M = type: cell-based; settings: Homo sapiens; for GI50 / IC (TGI) / activity at 10 µM: Malme-3M; for IC (TGI): read-out: TGI; for activity at 10 µM: read-out: percent cell growth promotion; for CC50: MALME-3M, 5 log dose, 48 h, read-out: LC50 (the source's name)
UACC-62 = type: cell-based; settings: for GI50 / activity at 10 µM / CC50: Homo sapiens; for GI50: UACC-62; for activity at 10 µM: UACC-62, read-out: percent cell growth promotion; for CC50 / TGI: UACC-62, 5 log dose; for CC50: 48 h, read-out: LC50 (the source's name)
OVCAR-3 = type: cell-based; settings: Homo sapiens; for GI50 / IC (TGI) / CC50: OVCAR-3, 5 log dose; for CC50: 48 h, read-out: LC50 (the source's name); for activity at 10 µM: OVCAR-3, single dose 10 μM, read-out: percent cell growth promotion
786-0 = type: cell-based; settings: Homo sapiens; for GI50 / IC (TGI) / CC50: 786-0, 5 log dose; for CC50: 48 h, read-out: LC50 (the source's name); for activity at 10 µM: 786-0, single dose 10 μM, read-out: percent cell growth promotion
RXF 393 = type: cell-based; settings: Homo sapiens; for GI50 / IC (TGI) / CC50: RXF 393, 5 log dose; for CC50: 48 h, read-out: LC50 (the source's name); for activity at 10 µM: RXF 393, single dose 10 μM, read-out: percent cell growth promotion
PC-3 = type: cell-based; settings: Homo sapiens; for GI50 / IC (TGI) / CC50: PC-3, 5 log dose; for CC50: 48 h, read-out: LC50 (the source's name); for activity at 10 µM: PC-3, single dose 10 μM, read-out: percent cell growth promotion
MCF7 = type: cell-based; settings: Homo sapiens; for GI50: MCF7; for IC (TGI): MCF7, read-out: TGI; for activity at 10 µM: MCF7, read-out: percent cell growth promotion; for CC50: MCF7, 5 log dose, 48 h, read-out: LC50 (the source's name)

Compound: O=C(Nc1ccc(Cl)cc1)Nc1ccc(Nc2nncc3ccccc23)cc1 [Compound 6b, 1–(4-Chlorophenyl)-3–(4-(phthalazin-1-ylamino)phenyl)urea]
- TGI (CCRF-CEM): 17.0 µM
- GI50 (CCRF-CEM): 2.57 µM
- CC50 (CCRF-CEM): > 100 µM
- activity at 10 µM (CCRF-CEM): 13.1%
- GI50 (HL-60(TB)): 2.42 µM
- IC (TGI) (HL-60(TB)): 7 µM
- CC50 (HL-60(TB)): > 100 µM
- activity at 10 µM (HL-60(TB)): 18.1%
- GI50 (RPMI-8226): 2.5 µM
- IC (TGI) (RPMI-8226): 8.75 µM
- CC50 (RPMI-8226): > 100 µM
- activity at 10 µM (RPMI-8226): 8.62%
- GI50 (SR): 3.89 µM
- IC (TGI) (SR): 23.3 µM
- CC50 (SR): > 100 µM
- activity at 10 µM (SR): 17.5%
- GI50 (NCI-H226): 2.46 µM
- IC (TGI) (NCI-H226): 12.5 µM
- CC50 (NCI-H226): 43.2 µM
- activity at 10 µM (NCI-H226): 33.3%
- GI50 (NCI-H23): 3.07 µM
- IC (TGI) (NCI-H23): 14.4 µM
- CC50 (NCI-H23): 71.8 µM
- activity at 10 µM (NCI-H23): 12.5%
- GI50 (HCC-2998): 3.26 µM
- IC (TGI) (HCC-2998): 19.8 µM
- LC50 (50% lethal concentration) (HCC-2998): > 100 µM
- activity at 10 µM (HCC-2998): 30.7%
- GI50 (HCT-116): 2.46 µM
- IC (TGI) (HCT-116): 12 µM
- LC50 (lethal concentration 50%) (HCT-116): 37.4 µM
- activity at 10 µM (HCT-116): 15.2%
- GI50 (HCT-15): 1.59 µM
- IC (TGI) (HCT-15): 11.8 µM
- CC50 (HCT-15): 71.5 µM
- activity at 10 µM (HCT-15): 18.3%
- GI50 (KM12): 1.47 µM
- IC (TGI) (KM12): 11.4 µM
- CC50 (KM12): 45 µM
- activity at 10 µM (KM12): 18.9%
- GI50 (SF-295): 2.84 µM
- IC (TGI) (SF-295): 11 µM
- CC50 (SF-295): 45.8 µM
- activity at 10 µM (SF-295): 17.8%
- GI50 (SNB-19): 3.67 µM
- IC (TGI) (SNB-19): 19 µM
- CC50 (SNB-19): > 100 µM
- activity at 10 µM (SNB-19): 33%
- GI50 (MALME-3M): 3.94 µM
- IC (TGI) (MALME-3M): 16.5 µM
- activity at 10 µM (MALME-3M): 38.5%
- CC50 (MALME-3M): 50 µM
- GI50 (UACC-62): 0.95 µM
- activity at 10 µM (UACC-62): 13.4%
- CC50 (UACC-62): 38.1 µM
- TGI (UACC-62): 7.97 µM
- GI50 (OVCAR-3): 2.57 µM
- IC (TGI) (OVCAR-3): 10.3 µM
- CC50 (OVCAR-3): 70 µM
- activity at 10 µM (OVCAR-3): 17.6%
- GI50 (786-0): 3.09 µM
- IC (TGI) (786-0): 25.2 µM
- CC50 (786-0): > 100 µM
- activity at 10 µM (786-0): 50.4%
- GI50 (RXF 393): 4.28 µM
- IC (TGI) (RXF 393): 21.4 µM
- CC50 (RXF 393): > 100 µM
- activity at 10 µM (RXF 393): 65.7%
- GI50 (PC-3): 2.32 µM
- IC (TGI) (PC-3): 11 µM
- CC50 (PC-3): 55.4 µM
- activity at 10 µM (PC-3): 1.46%
- GI50 (MCF7): 1.43 µM
- IC (TGI) (MCF7): 8.32 µM
- activity at 10 µM (MCF7): 5.46%
- CC50 (MCF7): 64.1 µM

Compound: Cc1nnc(Nc2ccc(NC(=O)Nc3ccc(Cl)cc3)cc2)c2ccccc12 [Compound 6e, 1–(4-Chlorophenyl)-3–(4-(4-methylphthalazin-1-ylamino)phenyl)urea]
- TGI (CCRF-CEM): 5.99 µM
- GI50 (CCRF-CEM): 2.38 µM
- CC50 (CCRF-CEM): > 100 µM
- activity at 10 µM (CCRF-CEM): 11%
- GI50 (HL-60(TB)): 2.03 µM
- IC (TGI) (HL-60(TB)): 4.18 µM
- CC50 (HL-60(TB)): 8.64 µM
- activity at 10 µM (HL-60(TB)): -34.8%
- GI50 (RPMI-8226): 2.6 µM
- IC (TGI) (RPMI-8226): 6.48 µM
- CC50 (RPMI-8226): > 100 µM
- activity at 10 µM (RPMI-8226): -11.9%
- GI50 (SR): 2.56 µM
- IC (TGI) (SR): 9.55 µM
- CC50 (SR): > 100 µM
- activity at 10 µM (SR): -3.51%
- GI50 (NCI-H226): 3.61 µM
- IC (TGI) (NCI-H226): 15.9 µM
- CC50 (NCI-H226): 64.6 µM
- activity at 10 µM (NCI-H226): 71.9%
- GI50 (NCI-H23): 2.38 µM
- IC (TGI) (NCI-H23): 6.31 µM
- CC50 (NCI-H23): 40.9 µM
- activity at 10 µM (NCI-H23): 48.8%
- GI50 (HCC-2998): 2.84 µM
- IC (TGI) (HCC-2998): 8.09 µM
- LC50 (50% lethal concentration) (HCC-2998): 27.8 µM
- activity at 10 µM (HCC-2998): 40.5%
- GI50 (HCT-116): 1.86 µM
- IC (TGI) (HCT-116): 3.59 µM
- LC50 (lethal concentration 50%) (HCT-116): 6.93 µM
- activity at 10 µM (HCT-116): 7.67%
- GI50 (HCT-15): 1.91 µM
- IC (TGI) (HCT-15): 4.53 µM
- CC50 (HCT-15): 13.9 µM
- activity at 10 µM (HCT-15): 6.39%
- GI50 (KM12): 1.99 µM
- IC (TGI) (KM12): 4.53 µM
- CC50 (KM12): 11.1 µM
- activity at 10 µM (KM12): 14.1%
- GI50 (SF-295): 2.04 µM
- IC (TGI) (SF-295): 4.21 µM
- CC50 (SF-295): 8.68 µM
- activity at 10 µM (SF-295): 4.8%
- GI50 (SNB-19): 2.77 µM
- IC (TGI) (SNB-19): 8.72 µM
- CC50 (SNB-19): 56.6 µM
- activity at 10 µM (SNB-19): 16.2%
- GI50 (MALME-3M): 2.17 µM
- IC (TGI) (MALME-3M): 4.79 µM
- activity at 10 µM (MALME-3M): -9.9%
- CC50 (MALME-3M): 20 µM
- GI50 (UACC-62): 1.75 µM
- activity at 10 µM (UACC-62): -34.4%
- CC50 (UACC-62): 7.35 µM
- TGI (UACC-62): 3.59 µM
- GI50 (OVCAR-3): 1.87 µM
- IC (TGI) (OVCAR-3): 3.99 µM
- CC50 (OVCAR-3): 8.47 µM
- activity at 10 µM (OVCAR-3): 44.4%
- GI50 (786-0): 1.71 µM
- IC (TGI) (786-0): 3.34 µM
- CC50 (786-0): 6.55 µM
- activity at 10 µM (786-0): -27.9%
- GI50 (RXF 393): 2.17 µM
- IC (TGI) (RXF 393): 4.13 µM
- CC50 (RXF 393): 7.84 µM
- activity at 10 µM (RXF 393): -39.7%
- GI50 (PC-3): 3.49 µM
- IC (TGI) (PC-3): 11.9 µM
- CC50 (PC-3): 62.7 µM
- activity at 10 µM (PC-3): 22.8%
- GI50 (MCF7): 2.21 µM
- IC (TGI) (MCF7): 10.9 µM
- activity at 10 µM (MCF7): 24.9%
- CC50 (MCF7): 68.7 µM
